Experimental data published in patent EP0443862A1, “Triamine derivatives and their acid-addition salts” (SUMITOMO PHARMACEUTICALS COMPANY, LIMITED, priority 1990, dated 1991).

The compounds below were run on NMDA-induced tonic convulsion (assay: Inhibition of NMDA-induced tonic convulsion in mice). Conditions: Mus musculus, ip, 0.5 h, i.p., 30 minutes before NMDA injected intracerebroventicularly, read-out: Inhibition potency of NMDA-induced tonic convulsion (ED50; mg/kg, i.p.).
Assay type: in vivo
Protocol: A test compound was injected intraperitoneally in mice. After 30 minutes from the administration, NMDA was injected intracerebroventicularly, and it was observed whether there was a tonic convulsion. ED₅₀ (mg/kg, i.p.) was calculated out from the inhibition rates.
`c1ccc2c(NCCCNCCNc3cccc4ccccc34)cccc2c1` [Example 4] was tested, and the ED50 was over 30 mg/kg. Work on `Clc1ccc(NCCNCCNc2ccc(Cl)c3ccccc23)c2ccccc12` [Example 5] yielded an ED50 of 24.8 mg/kg. For `c1cc2c(c(NCCNCCNc3cccc4c3CCCC4)c1)CCCC2` [Example 3], the ED50 was over 30 mg/kg. In the case of `c1cnc2c(NCCNCCNc3cccc4cccnc34)cccc2c1` [Example 1], the ED50 is reported as 16.4 mg/kg. `c1ccc2c(NCCNCCNc3cccc4ccccc34)cccc2c1` [Example 2] showed an ED50 of over 30 mg/kg.
